Reference: patent US10092570B2 (Incyte Corporation, priority 2011, dated 2018)

Biological target: PI3K isoform δ (Homo sapiens (Human), UniProt O00329)
Assay: Example A2: PI3K enzyme assay ([γ-33P]ATP filter plate), PI3Kδ
Assay type: biochemical
Conditions: as determined by Assay A2
Description: PI3K isoforms α, β, δ and γ are purchased from Millipore (Bedford, Mass.).
Inhibitors are first diluted serially in DMSO and added to the plate wells before the addition of other reaction components. The final concentration of DMSO in the assay is 0.5%. The PI3K assays are carried out at room temperature in 20 mM MOPS, pH 6.7, 10 mM MgCl2, 5 mM DTT and CHAPS 0.03%. The reaction mixture is prepared containing 50 μM PIP2, kinase and varying concentration of inhibitors. Reactions are initiated by the addition of ATP containing 2.2 μCi [γ-^33P]ATP to a final concentration of 1000 μM. […] Reactions are incubated for 180 minutes and terminated by the addition of 100 μL of 1 M potassium phosphate pH 8.0, 30 mM EDTA quench buffer. A 100 μL aliquot of the reaction solution are then transferred to 96-well Millipore MultiScreen IP 0.45 μm PVDF filter plate (The filter plate is prewetted with 200 μL 100% ethanol, distilled water, and 1 M potassium phosphate pH 8.0, respectively). […] After drying by aspiration and blotting, the plate is air dried in an incubator at 37° C. overnight. Packard TopCount adapter (Millipore) is then attached to the plate followed with addition of 120 μL Microscint 20 scintillation cocktail (Perkin Elmer) in each well. After the plate sealing, the radioactivity of the product is determined by scintillation counting on Topcount (Perkin-Elmer). […]

PI3K isoform δ, sequence (O00329 whole entry, canonical isoform): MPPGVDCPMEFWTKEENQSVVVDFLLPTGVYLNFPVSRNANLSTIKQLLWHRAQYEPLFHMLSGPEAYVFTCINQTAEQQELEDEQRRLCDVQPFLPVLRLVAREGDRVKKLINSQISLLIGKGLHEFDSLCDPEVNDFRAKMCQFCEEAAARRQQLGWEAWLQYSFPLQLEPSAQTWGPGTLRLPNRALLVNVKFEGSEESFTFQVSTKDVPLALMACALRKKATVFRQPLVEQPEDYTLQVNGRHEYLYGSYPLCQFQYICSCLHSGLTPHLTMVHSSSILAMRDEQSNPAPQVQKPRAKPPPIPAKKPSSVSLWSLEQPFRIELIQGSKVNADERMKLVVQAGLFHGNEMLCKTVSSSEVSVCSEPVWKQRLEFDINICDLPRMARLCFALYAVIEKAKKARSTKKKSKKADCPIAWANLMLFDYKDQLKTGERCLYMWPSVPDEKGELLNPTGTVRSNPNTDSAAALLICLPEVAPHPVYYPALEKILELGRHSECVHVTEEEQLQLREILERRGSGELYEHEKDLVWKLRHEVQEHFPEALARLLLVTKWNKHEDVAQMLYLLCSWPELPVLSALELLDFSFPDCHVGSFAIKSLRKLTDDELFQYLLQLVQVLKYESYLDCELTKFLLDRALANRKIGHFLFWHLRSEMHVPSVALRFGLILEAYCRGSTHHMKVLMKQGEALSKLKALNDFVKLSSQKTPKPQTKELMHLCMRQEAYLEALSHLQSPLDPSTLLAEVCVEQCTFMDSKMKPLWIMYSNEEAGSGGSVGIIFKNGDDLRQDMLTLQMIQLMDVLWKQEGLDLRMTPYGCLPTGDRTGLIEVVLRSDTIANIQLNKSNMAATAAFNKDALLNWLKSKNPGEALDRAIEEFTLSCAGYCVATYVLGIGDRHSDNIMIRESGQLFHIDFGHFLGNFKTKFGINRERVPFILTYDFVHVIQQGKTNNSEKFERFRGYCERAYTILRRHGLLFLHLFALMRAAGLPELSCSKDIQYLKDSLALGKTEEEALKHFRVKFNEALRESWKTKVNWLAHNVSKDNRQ
PI3K isoform δ, sequence (P27986 whole entry partner, canonical isoform): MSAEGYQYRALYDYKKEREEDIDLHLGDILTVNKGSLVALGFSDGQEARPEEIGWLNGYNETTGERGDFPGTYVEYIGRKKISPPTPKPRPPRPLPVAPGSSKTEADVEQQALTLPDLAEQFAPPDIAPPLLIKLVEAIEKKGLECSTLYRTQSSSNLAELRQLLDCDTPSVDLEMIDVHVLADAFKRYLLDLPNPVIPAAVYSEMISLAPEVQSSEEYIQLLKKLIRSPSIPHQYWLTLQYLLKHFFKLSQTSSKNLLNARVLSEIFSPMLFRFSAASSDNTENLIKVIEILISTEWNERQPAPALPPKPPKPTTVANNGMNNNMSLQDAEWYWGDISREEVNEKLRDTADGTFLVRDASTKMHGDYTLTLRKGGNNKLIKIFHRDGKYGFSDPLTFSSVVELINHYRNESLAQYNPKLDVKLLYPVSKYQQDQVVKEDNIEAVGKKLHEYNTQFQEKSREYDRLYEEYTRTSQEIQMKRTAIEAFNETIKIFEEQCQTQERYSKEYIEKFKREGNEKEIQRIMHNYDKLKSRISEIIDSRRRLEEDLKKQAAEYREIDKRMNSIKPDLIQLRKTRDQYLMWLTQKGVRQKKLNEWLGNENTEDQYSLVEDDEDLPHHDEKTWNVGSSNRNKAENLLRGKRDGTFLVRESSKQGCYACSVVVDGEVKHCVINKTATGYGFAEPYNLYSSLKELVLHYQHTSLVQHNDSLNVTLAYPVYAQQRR

IC50: > 500 nM
Compound: COc1c([C@@H](C)n2nc(C)c3c(N)ncnc32)cc(Cl)c(C#N)c1C1CN(C[C@H](C)O)C1 [Example 361, 4-((R)-1-(4-amino-3-methyl-1H-pyrazolo[3,4-d]pyrimidin-1-yl)ethyl)-6-chloro-2-(1-((S)-2-hydroxypropyl)azetidin-3-yl)-3-methoxybenzonitrile]
